Data set [1] is described as follows: Acute toxicity in BALB/c mouse assessed as effect on locomotor activity at 10 mg/kg, ip measured for 7 days. Type of data set: organism-based. The conditions noted are these: in vivo, 168 h, time 7 day.
For data set [2], the system named is Acinetobacter baumannii. Briefly: Antibacterial activity against Acinetobacter baumannii i ATCC 19606 assessed as reduction in bacterial growth measured after 18 hrs by broth microdilution method. It is filed as functional. A general note: Dilution methods test growth across graded concentrations, often in twofold steps.
Data set [3] has as its system Staphylococcus aureus. Briefly: Synergistic antibacterial activity against MDR-methicillin-resistant Staphylococcus aureus ATCC BAA-44 assessed as fractional inhibitory concentration index in presence of neomycin by checkerboard assay. Type of data set: functional.
Data set [4] relates to Staphylococcus aureus. Briefly: Additive antibacterial activity against MDR-methicillin-resistant Staphylococcus aureus ATCC BAA-44 assessed as fold change in chloramphenicol MIC by checkerboard assay. Type of data set: functional.
Data set [5] concerns the target Bacterial 70S ribosome (Bacteria) (UniProt P0A7V0+P60723+P0AG67+P0A7R5+P0A7R9+P0A7S3+P0A7S9+P0AG59+P0ADZ4+P0A7T3+P0AG63+P0A7T7+P0A7U3+P0A7U7+P68679+P0A7V3+P0A7V8+P0A7W1+P02358+P02359+P0A7W7+P0A7X3+P0A7J3+P0A7J7+P0AA10+P0ADY3+P02413+P0ADY7+P0AG44+P0C018+P0A7K6+P0A7L0+P0A7L3+P0AG48+P61175+P0ADZ0+P60624+P68919+P0A7L8+P0A7M2+P0A7M6+P60422+P0AG51+P0A7N1+P0A7M9+P0A7N4+P0A7N9+P0A7P5+P0A7Q1+Q2EEQ2+P0A7Q6+P60438+P62399+P0AG55+P0A7K2). As to the kind of experiment: Inhibition of 70S ribosome-mediated protein synthesis in Escherichia coli at 1XMIC incubated for 1 hr by renilla luciferase based luminescence assay. Type of data set: subcellular.

Data set [6] deals with Staphylococcus aureus. As to the kind of experiment: Additive antibacterial activity against MDR-methicillin-resistant Staphylococcus aureus ATCC BAA-44 assessed as fold change in tetracycline MIC by checkerboard assay. It is filed as functional.
Data set [7] deals with Staphylococcus epidermidis. As to the kind of experiment: Antibacterial activity against Staphylococcus epidermidis ATCC 12228 assessed as reduction in bacterial growth measured after 18 hrs by broth microdilution method. It is filed as functional.
Data set [8] deals with Staphylococcus aureus. As to the kind of experiment: Synergistic antibacterial activity against MDR-methicillin-resistant Staphylococcus aureus ATCC BAA-44 assessed as fold change in neomycin MIC by checkerboard assay. Type of data set: functional.
Data set [9] relates to Staphylococcus aureus. As to the kind of experiment: Synergistic antibacterial activity against MDR-methicillin-resistant Staphylococcus aureus ATCC BAA-44 assessed as fold change in ampicillin MIC by checkerboard assay. Type of data set: functional.
Data set [10] deals with Staphylococcus aureus. Briefly: Additive antibacterial activity against MDR-methicillin-resistant Staphylococcus aureus ATCC BAA-44 assessed as fractional inhibitory concentration index in presence of chloramphenicol by checkerboard assay. It is filed as functional.
The nature of data set [11]: Cytotoxicity against human THP-1 cells assessed as cell viability at 50 uM by MTT assay. It is filed as toxicity, cell-based. The following applies: read-out: Activity.
For data set [12], the system named is Escherichia coli. Briefly: Bactericidal activity against Escherichia coli ATCC 25922 assessed as log reduction of bacterial growth at 5XMIC incubated for 2 hrs followed by plating on MHII agar pate for 24 hrs. The conditions noted are these: time 26 hrs. Type of data set: functional.
In data set [13] the target is trypsin (Homo sapiens, UniProt P07477+P07478+P35030). As to the kind of experiment: Stability of compound assessed as trypsin (unknown origin)-mediated compound degradation by measuring parent compound remaining at 150 uM measured upto 4 hrs by RP-HPLC method. Type of data set: ADME, protein assay. The conditions noted are these: read-out: Stability.
Data set [14] concerns Staphylococcus aureus. As to the kind of experiment: Synergistic antibacterial activity against MDR-methicillin-resistant Staphylococcus aureus ATCC BAA-44 assessed as fractional inhibitory concentration index in presence of ampicillin by checkerboard assay. It is filed as functional.
In data set [15] the test system is Staphylococcus aureus. As to the kind of experiment: Antibacterial activity against Staphylococcus aureus ATCC 25923 assessed as reduction in bacterial growth measured after 18 hrs by broth microdilution method. Type of data set: functional.
Data set [16] deals with Pseudomonas aeruginosa. Briefly: Antibacterial activity against Pseudomonas aeruginosa ATCC BAA-427 assessed as reduction in bacterial growth measured after 18 hrs by broth microdilution method. It is filed as functional.
For data set [17], the system named is Staphylococcus aureus. As to the kind of experiment: Additive antibacterial activity against MDR-methicillin-resistant Staphylococcus aureus ATCC BAA-44 assessed as chloramphenicol MIC by checkerboard assay. Type of data set: functional.
The subject of data set [18] is Cell membrane. Briefly: Disruption of bacterial cell membrane in Escherichia coli ATCC 25922 assessed as blebbing on the surface of the bacteria at 5XMIC by SEM analysis. It is filed as subcellular.

The structures appear in SMILES notation. In brackets after ≈: the same amount, converted by molar mass. Activity calls are given as the source filed them. The rule behind the calls is not given here. Where a SMILES comes first, the peptide text is derived from it. The star is where a group is joined. Lauroyl = CCCCCCCCCCCC(=O)*; Decanoyl = CCCCCCCCCC(=O)*; Spermine = NCCCNCCCCNCCCN*

Turning to `CCCCCCCCCC(=O)N1CCC[C@H]1C(=O)N[C@@H](CCCNC(=N)N)C(=O)N1CCC[C@H]1C(=O)N[C@@H](CCCNC(=N)N)C(=O)N1CCC[C@H]1C(=O)N1CCC[C@H]1C(=O)N[C@@H](CCCNC(=N)N)C(=O)NCCCNCCCCNCCCN` (Decanoyl-PRPRPPR-Spermine), the Activity entry in data set [1] is recorded as “Non-Toxic”; in [12], greater than 3 log10CFU/ml. Further, the MIC in data set [2] was 6.2 µM (≈ 7.52 µg/mL); in [7] it was 1.5 µM (≈ 1.82 µg/mL); in data set [15], 3.1 µM (≈ 3.76 µg/mL); in data set [16] it was 6.2 µM (≈ 7.52 µg/mL); in data set [17], 1000 µg/mL. Besides, the results for the “fractional inhibitory concentration index (FICI)” value in data set [3], in data set [10] and in data set [14] were 0.312, 2 and 0.313, respectively. Further, the “fold change (FC)” value in [4] is recorded as 1; in data set [6] it was 2; in data set [8] it was 1.6; in data set [9] it was 2. Besides, the inhibition entry in data set [5] was “Active”. Besides, the viability at 50 µM in data set [11] came to 94%. Also, in [13], the remaining at 4 h, 150 µM is greater than 80%.

In the case of `CCCCCCCCCCCC(=O)N1CCC[C@H]1C(=O)N[C@@H](CCCNC(=N)N)C(=O)N1CCC[C@H]1C(=O)N[C@@H](CCCNC(=N)N)C(=O)N1CCC[C@H]1C(=O)N1CCC[C@H]1C(=O)N[C@@H](CCCNC(=N)N)C(=O)NCCCNCCCCNCCCN` (Lauroyl-PRPRPPR-Spermine), the Activity result in data set [1] is on record as “Non-Toxic”; in data set [12], greater than 3 log10CFU/ml. Moreover, the MIC in [2] was 6.2 µM (≈ 7.7 µg/mL); in [7] it was 1.5 µM (≈ 1.86 µg/mL); in data set [15], 1.5 µM (≈ 1.86 µg/mL); in [16], 6.2 µM (≈ 7.7 µg/mL). The “fractional inhibitory concentration index (FICI)” value in data set [3] was 0.312; in data set [14] it was 0.28. In addition, the inhibition result in [5] is “Active”. Besides, the “fold change (FC)” value in [6] was 2; in [8] it was 1.6; in [9] it was 4. Moreover, the viability at 50 µM in data set [11] is 79%. Besides, the outcome in data set [18] was Active. Further, in data set [13], the remaining at 4 h, 150 µM is greater than 80%.

Broadly, the MIC is the lowest concentration found to suppress growth.
